Assay results taken from article PMC11193111 (2024).

Test system: THF-containing double-stranded 17-mer oligodeoxynucleotide (DNA, mismatch bulge abasic, tetrahydrofuran (THF, abasic site analogue) at 6 of strand 1) TCACCNTCGTACGACTC/GAGTCGTACGACGGTGA
Assay: thiazole orange displacement, fluorescence
Settings: 100 mM KCl, 20 mM Tris-HCl pH 7.4, 0.01% Tween-20, room temperature, 250 nM thiazole orange displaced, 50 nM DNA

Row | apparent DNA binding constant | SMILES
1 | 83 ± 3 nM | O=C1c2c(O)ccc(O)c2C(=O)c2c(NCCNCCO)ccc(NCCNCCO)c21
2 | 1250 ± 320 nM | NCCNc1ccc(NCCN)c2c1C(=O)c1ccncc1C2=O
